In US7166299B2, “Preparation of aqueous clear solution dosage forms with bile acids” (priority 1998, dated 2007):
Several values for one entry are separate records, joined by “and”; a condition that tells them apart may be missing. Identical values can stand only once.

Assay: Solution stability test (HPLC) of UDCA, branched chained amino acids and maltodextrin solution, Example IV
Assay type: physicochemical
Experimental: The stability tests were conducted on three different aqueous solution systems: […]. A bile acid and a high molecular weight aqueous soluble starch conversion product were combined in aqueous solution according to Example I, with results as shown in Tables 1A and 1B. • 2. Mixed bile acids and high molecular weight aqueous soluble starch conversion products were combined in aqueous solution according to Example II, with results as shown in Table 2. • 3. Bile acids, high molecular weight aqueous soluble starch conversion products and branched chained amino acids (e.g. leucine, isoleucine, valine, or other amino acid with a branched side chain) were combined in aqueous solution according to Example IV, with results as shown in Tables 3A through 3F. The stability tests were performed with HPLC and microscope light at various pH conditions under the normal and accelerated conditions. Accelerated conditions for testing pharmaceutical compositions have been described (Remington, The Science and Practice of Pharmacy, 19th ed., p. 640). […] Thus, the formulations of the examples are suitable for preparing a commercial liquid dosage form. […] Some formulations remain stable for over 2 years. Moreover, the solution stability tests were conducted on the aqueous solution dosage forms comprising the mixture of aqueous soluble UDCA, branched chained amino acid (leucine, isoleucine, valine) and maltodextrin according to example IV as a typical example of the solution dosage forms in which bile acid as a therapeutically active agent, as an adjuvant or carrier, pharmaceutically active agent, or enhancer of solubility, and high molecular weight aqueous soluble starch conversion products or soluble non-starch polysaccharides are dissolved. According to the test results, there is no discoloration, no clarity changes, and no precipitation. […] In the tables, the concentration of the indicated bile acid salt for each of the three numbered trials and the average thereof is reported on each line. The percentage indicates the relative concentration of the bile acid salt after incubation for a certain amount of time in comparison with the initial concentration. 85 mL of the aqueous solution in which soluble UDCA is dissolved was prepared, and then maltodextrin was added into the clear solution. Into the resulting clear solution, branched amino acids were added with adjusting the pH (4–7) with agitation and then sweetener, preservatives, and flavoring agent were added. Purified water was added to adjust the total volume to be 100 mL. Tables 3A to 3F show stability test results over time of formulation prepared with amino acids according to Example IV. All stability tests were conducted at 50° C. Stability test results at pH 1 (Table 3A), pH 3 (Table 3B), pH 5 (Table 3C), pH 7 (Table 3D), pH 9 (Table 3E), and pH 10 (Table 3F) are shown.

## CC(C)[C@H](N)C(=O)O [Val, valine]
Table 3C: pH 5, 50° C., day 13
  concentration by HPLC, trials #1-#3: 0.464 and 0.451 and 0.474
Table 3C: pH 5, 50° C., day 17
  Percentage of day 0 concentration: 93.0%
  concentration by HPLC, Average: 0.453
  concentration by HPLC, trials #1-#3: 0.407 and 0.491 and 0.462
Table 3C: pH 5, 50° C., day 20
  Percentage of day 0 concentration: 99.9%
  concentration by HPLC, Average: 0.487
  concentration by HPLC, trials #1-#3: 0.471 and 0.512 and 0.477
Table 3C: pH 5, 50° C., day 24
  Percentage of day 0 concentration: 96.1%
  concentration by HPLC, Average: 0.468
  concentration by HPLC, trials #1-#3: 0.471 and 0.476 and 0.458
Table 3D: pH 7, 50° C., day 0
  Percentage of day 0 concentration: 100.0%
  concentration by HPLC, Average: 0.513
  concentration by HPLC, trials #1-#3: 0.483 and 0.530 and 0.525
Table 3D: pH 7, 50° C., day 5
  Percentage of day 0 concentration: 94.1%
  concentration by HPLC, Average: 0.483
  concentration by HPLC, trials #1-#3: 0.502 and 0.447 and 0.499
Table 3D: pH 7, 50° C., day 8
  Percentage of day 0 concentration: 96.2%
  concentration by HPLC, Average: 0.493
  concentration by HPLC, trials #1-#3: 0.488 and 0.498 and 0.493
Table 3D: pH 7, 50° C., day 12
  Percentage of day 0 concentration: 91.2%
  concentration by HPLC, Average: 0.467
  concentration by HPLC, trials #1-#3: 0.490 and 0.469 and 0.443
Table 3D: pH 7, 50° C., day 15
  Percentage of day 0 concentration: 95.9%
  concentration by HPLC, Average: 0.492
  concentration by HPLC, trials #1-#3: 0.492 and 0.541 and 0.442
Table 3D: pH 7, 50° C., day 19
  Percentage of day 0 concentration: 93.6%
  concentration by HPLC, Average: 0.480
  concentration by HPLC, trials #1-#3: 0.458 and 0.500 and 0.482
Table 3E: pH 9, 50° C., day 0
  Percentage of day 0 concentration: 100.0%
  concentration by HPLC, Average: 0.489
  concentration by HPLC, trials #1-#3: 0.508 and 0.476 and 0.484
Table 3E: pH 9, 50° C., day 3
  Percentage of day 0 concentration: 97.8%
  concentration by HPLC, Average: 0.478
  concentration by HPLC, trials #1-#3: 0.463 and 0.487 and 0.485
Table 3E: pH 9, 50° C., day 6
  Percentage of day 0 concentration: 99.5%
  concentration by HPLC, Average: 0.487
  concentration by HPLC, trials #1-#3: 0.493 and 0.473 and 0.495
Table 3E: pH 9, 50° C., day 10
  Percentage of day 0 concentration: 91.3%
  concentration by HPLC, Average: 0.447
  concentration by HPLC, trials #1-#3: 0.441 and 0.428 and 0.471
Table 3E: pH 9, 50° C., day 13
  Percentage of day 0 concentration: 101.3%
  concentration by HPLC, Average: 0.496
  concentration by HPLC, trials #1-#3: 0.467 and 0.483 and 0.537
Table 3E: pH 9, 50° C., day 17
  Percentage of day 0 concentration: 101.8%
  concentration by HPLC, Average: 0.498
  concentration by HPLC, trials #1-#3: 0.499
Table 3F: pH 10, 50° C., day 0
  Percentage of day 0 concentration: 100.0%
  concentration by HPLC, Average: 0.486
Table 3F: pH 10, 50° C., day 2
  Percentage of day 0 concentration: 104.2%
  concentration by HPLC, Average: 0.506
Table 3F: pH 10, 50° C., day 5
  Percentage of day 0 concentration: 83.5%
  concentration by HPLC, Average: 0.405
Table 3F: pH 10, 50° C., day 7
  Percentage of day 0 concentration: 81.8%
  concentration by HPLC, Average: 0.397
Table 3F: pH 10, 50° C., day 9
  Percentage of day 0 concentration: 75.8%
  concentration by HPLC, Average: 0.368
